Measured values from patent US10010493B2, “Ester compound, and cosmetic component and cosmetic product each containing same” (Kokyu Alcohol Kogyo Co., Ltd., priority 2014, dated 2018).
“Also recorded” adds a separate entry of the source. Values belong to the molecule of their own block, whether it stands above or below them.

Key:
Assay type in all cases: physicochemical
[1] = Viscosity, Brookfield viscometer DV-II+; details: 25° C., spindle No. 2, 12 rpm
Procedure: Viscosity of ester compounds was measured using Brookfield viscometer DV-II+ (spindle No. 2, 12 rpm, 25° C.). As a comparison, viscosity of oil agents commonly used in cosmetic products was also measured.

[2] = Smoothness (MIU, MMD), KES-SE Friction Tester on artificial leather; details: for MIU (mean frictional coefficient) / MMD (fluctuation of mean frictional coefficient): 25° C., 0.1 ml on artificial leather, average of three; for Smoothness in comparison with other oil agents: comparison of MIU at similar viscosity
Procedure: Smoothness of ester compounds was measured using KES-SE Friction Tester (Kato Tech Co., Ltd.) with a detection-unit jig (an accessory of the tester, made of silicone rubber with irregularities resembling a human finger) and artificial leather (artificial leather Supplare produced by Idemitsu Technofine Co., Ltd.). On the artificial leather, 0.1 ml of an ester compound was droped. The jig was contacted to the site on the surface of the artificial leather where the oil agent was dropped. Temperature of the leather, oil agent and jig was adjusted to 25° C. in a constant temperature bath. Then, the jig was moved back and forth once at the same site with a speed of 1 mm/s (the moving distance of the jig was approximately 80 mm in one back-and-forth movement), and a mean frictional coefficient (MIU) and a fluctuation of mean frictional coefficient (MMD) for one back-and-forth movement were measured. The measurement was performed three times and the average values of MIU and MMD were calculated, which were used as indices of smoothness. For comparison, MIU and MMD of the various ester compounds used in the viscosity measurement were also measured.

[3] = Ultraviolet absorber solubility in oily bases; further: key: C: Soluble; N: Insoluble; (N): Since it is insoluble when ultraviolet absorber is 3%, it is judged to be probably insoluble at 5% as well
Procedure: Their state after 1 week was evaluated visually.

[4] = Glossiness (refractive index), Abbe refractometer NTR-2T; details: 20° C.
Procedure: Measurement is carried out using Abbe refractometer NTR-2T (Atago Co., Ltd.) at 20° C., and resulting values represent refractive index.

[5] = Compatibility with various types of oil agent; set-up: key to Compatibility with Hydrogenated polyisobutene / Compatibility with Isononyl isononanoate / Compatibility with Neopentyl glycol diethylhexanoate / Compatibility with Triethylhexanoin / Compatibility with Octyldodecanol / Compatibility with Polyglyceryl-2 triisostearate / Compatibility with Diisostearyl malate / Compatibility with Olive oil / Compatibility with Isostearic acid / Compatibility with Cyclomethicone / Compatibility with Dimethicone (10 mm^2/s) / Compatibility with Ethanol / Compatibility with Glycerin / Compatibility with Squalane / Compatibility with Mineral oil: C: Compatible; N: Not compatible; details: for Compatibility with Cyclomethicone / Compatibility with Dimethicone (10 mm^2/s) / Compatibility with Ethanol / Compatibility with Glycerin / Compatibility with Hydrogenated polyisobutene / Compatibility with Isostearic acid / Compatibility with Mineral oil / Compatibility with Octyldodecanol / Compatibility with Olive oil / Compatibility with Polyglyceryl-2 triisostearate / Compatibility with Squalane / Compatibility with Triethylhexanoin / Compatibility with Diisostearyl malate / Compatibility with Isononyl isononanoate / Compatibility with Neopentyl glycol diethylhexanoate: 25° C., visual after 1 week
Procedure: Each of TCDNP and TCDDNP obtained in Synthesis Examples 1 and 8 and each of oily bases are combined with a weight ratio of 9:1 or 1:1, and dissolved in a water bath at 80-90° C. for approximately 30 min with stirring, then cooled to 50° C. with stirring, and stored in a thermostatic chamber at 25° C. Their compatibility was evaluated by visually checking the state after 1 week.

[6] = Tinosorb S 7%, 25° C., visual after 1 week
[7] = Tinosorb S 5%, 25° C., visual after 1 week
[8] = Tinosorb S 5%, judged from insolubility at 3%
[9] = Tinosorb S 2%, 25° C., visual after 1 week

Refractive index [4]: 1.446 | Viscosity [1]: 14 mPa · s | MIU (mean frictional coefficient) [2]: 0.27 | MMD (fluctuation of mean frictional coefficient) [2]: 0.006 | Solubility of ultraviolet absorber Tinosorb S in the component [3, 7]: N
Molecule: CC(C)CCCCCCCCCCCCCCCOC(=O)C(C)(C)C [Isostearyl neopentanoate, reference compound]

Refractive index [4]: 1.445 | Solubility of ultraviolet absorber Tinosorb S in the component [3, 8]: (N)
Molecule: CC(C)CCCCCCCCCCOC(=O)CCCCCC(C)C [Isotridecyl isononanoate, reference compound]

Solubility of ultraviolet absorber Tinosorb S in the component [3, 6]: N
Molecule: CCCCCCCCCC(=O)OCC(C)(C)COC(=O)CCCCCCCCC [Neopentyl glycol dicaprate]

Solubility of ultraviolet absorber Tinosorb S in the component [3, 7]: N
Molecule: CCCCC(CC)C(=O)OCC(C)(C)COC(=O)C(CC)CCCC (centres unmarked) [Neopentyl glycol diethylhexanoate]

Viscosity [1]: 96 mPa · s | MIU (mean frictional coefficient) [2]: 0.41 | MMD (fluctuation of mean frictional coefficient) [2]: 0.006 | Solubility of ultraviolet absorber Tinosorb S in the component [3, 9]: N
Molecule: CCCCCCCCCCCCCCCCCC(=O)OC(CCCCCC)CCCCCCCCCCC(=O)OCC(CCCCCCCC)CCCCCCCCCC (centres unmarked) [Octyldodecyl stearoyloxy stearate, reference compound]

Viscosity [1]: 32 mPa · s | MIU (mean frictional coefficient) [2]: 0.40 | MMD (fluctuation of mean frictional coefficient) [2]: 0.007
Molecule: CC(C)CCCC(C)CCCC(C)CCCCC(C)CCCC(C)CCCC(C)C (centres unmarked) [Squalane, reference compound]

Refractive index [4]: 1.472 | Viscosity [1]: 462 mPa · s | MIU (mean frictional coefficient) [2]: 0.28 | MMD (fluctuation of mean frictional coefficient) [2]: 0.006 | Compatibility with Cyclomethicone ([5]; 10%): C | Compatibility with Dimethicone (10 mm^2/s) ([5]; 10%): C | Compatibility with Ethanol ([5]; 10%): C | Compatibility with Glycerin ([5]; 10%): N | Compatibility with Hydrogenated polyisobutene ([5]; 10%): C | Compatibility with Isostearic acid ([5]; 10%): C | Compatibility with Mineral oil ([5]; 10%): C | Compatibility with Octyldodecanol ([5]; 10%): C | Compatibility with Olive oil ([5]; 10%): C | Compatibility with Polyglyceryl-2 triisostearate ([5]; 10%): C | Compatibility with Squalane ([5]; 10%): C | Compatibility with Triethylhexanoin ([5]; 10%): C | Compatibility with Cyclomethicone ([5]; 50%): C | Compatibility with Dimethicone (10 mm^2/s) ([5]; 50%): C | Compatibility with Ethanol ([5]; 50%): C | Compatibility with Glycerin ([5]; 50%): N | Compatibility with Hydrogenated polyisobutene ([5]; 50%): C | Compatibility with Isostearic acid ([5]; 50%): C | Compatibility with Mineral oil ([5]; 50%): C | Compatibility with Octyldodecanol ([5]; 50%): C | Compatibility with Olive oil ([5]; 50%): C | Compatibility with Polyglyceryl-2 triisostearate ([5]; 50%): C | Compatibility with Squalane ([5]; 50%): C | Compatibility with Triethylhexanoin ([5]; 50%): C
Molecule: CC(C)(C)C(=O)OCC1CC2CC1C1CCC(COC(=O)C(C)(C)C)C21 (centres unmarked) [TCDDNP, 3,8-bis-(neopentanoyloxymethyl)-tricyclo[5.2.1.0^2,6]decane]
Compatibility with the oil agents (overall) [5]: excellent compatibility with the oil agents other than glycerin

Refractive index [4]: 1.483 | Viscosity [1]: 15 mPa · s | MIU (mean frictional coefficient) [2]: 0.27 | MMD (fluctuation of mean frictional coefficient) [2]: 0.005
Molecule: CC(C)C(=O)OCC1CC2CC1C1CCCC21 (centres unmarked) [TCDIB, tricyclo[5.2.1.0^2,6]deca-8-yl-methyl isobutanoate]

Refractive index [4]: 1.479 | Viscosity [1]: 44 mPa · s | MIU (mean frictional coefficient) [2]: 0.31 | MMD (fluctuation of mean frictional coefficient) [2]: 0.006 | Smoothness in comparison with other oil agents [2]: superior smoothness than squalane | Solubility of ultraviolet absorber Tinosorb S in the component [3, 7]: N
Molecule: CC(CC(=O)OCC1CC2CC1C1CCCC21)CC(C)(C)C (centres unmarked) [TCDIN, tricyclo[5.2.1.0^2,6]deca-8-yl-methyl isononanoate]

Refractive index [4]: 1.479 | Viscosity [1]: 32 mPa · s | MIU (mean frictional coefficient) [2]: 0.25 | MMD (fluctuation of mean frictional coefficient) [2]: 0.006 | Compatibility with Cyclomethicone ([5]; 10%): C | Compatibility with Diisostearyl malate ([5]; 10%): C | Compatibility with Dimethicone (10 mm^2/s) ([5]; 10%): C | Compatibility with Ethanol ([5]; 10%): C | Compatibility with Glycerin ([5]; 10%): N | Compatibility with Hydrogenated polyisobutene ([5]; 10%): C | Compatibility with Isononyl isononanoate ([5]; 10%): C | Compatibility with Mineral oil ([5]; 10%): C | Compatibility with Neopentyl glycol diethylhexanoate ([5]; 10%): C | Compatibility with Octyldodecanol ([5]; 10%): C | Compatibility with Polyglyceryl-2 triisostearate ([5]; 10%): C | Compatibility with Squalane ([5]; 10%): C | Compatibility with Cyclomethicone ([5]; 50%): C | Compatibility with Diisostearyl malate ([5]; 50%): C | Compatibility with Dimethicone (10 mm^2/s) ([5]; 50%): C | Compatibility with Ethanol ([5]; 50%): C | Compatibility with Glycerin ([5]; 50%): N | Compatibility with Hydrogenated polyisobutene ([5]; 50%): C | Compatibility with Isononyl isononanoate ([5]; 50%): C | Compatibility with Mineral oil ([5]; 50%): C | Compatibility with Neopentyl glycol diethylhexanoate ([5]; 50%): C | Compatibility with Octyldodecanol ([5]; 50%): C | Compatibility with Polyglyceryl-2 triisostearate ([5]; 50%): C | Compatibility with Squalane ([5]; 50%): C | Solubility of ultraviolet absorber Tinosorb S in the component [3, 6]: N
Molecule: CC(C)(C)C(=O)OCC1CC2CC1C1CCCC21 (centres unmarked) [TCDNP, tricyclo[5.2.1.0^2,6]deca-8-yl-methyl neopentanoate]
Smoothness in comparison with other oil agents [2]: superior smoothness than squalane; also recorded: comparable to dimethicone | Compatibility with the oil agents (overall) [5]: excellent compatibility with the oil agents other than glycerin

Refractive index [4]: 1.484 | Viscosity [1]: 15 mPa · s | MIU (mean frictional coefficient) [2]: 0.29 | MMD (fluctuation of mean frictional coefficient) [2]: 0.005
Molecule: CCCCC(=O)OCC1CC2CC1C1CCCC21 (centres unmarked) [TCDP, tricyclo[5.2.1.0^2,6]deca-8-yl-methyl-n-pentanoate]

Solubility of ultraviolet absorber Tinosorb S in the component [3, 9]: N
Molecule: Isopropyl dimerate

Refractive index [4]: 1.468
Molecule: Pentaerythrityl tetraisostearate [reference compound]

Viscosity [1]: 339 mPa · s | MIU (mean frictional coefficient) [2]: 0.31 | MMD (fluctuation of mean frictional coefficient) [2]: 0.008
Molecule: Polyglyceryl-2 triisostearate [reference compound]

The next lines start with the molecule.

Molecule: CCCCCCCCCCC(CO)CCCCCCCCCC [Decyldodecanol, reference compound]
Viscosity [1]: 69 mPa · s | MIU (mean frictional coefficient) [2]: 0.40 | MMD (fluctuation of mean frictional coefficient) [2]: 0.006

Molecule: CC(C)COC(=O)CCCCC(=O)OCC(C)C [Diisobutyl adipate]
Solubility of ultraviolet absorber Tinosorb S in the component [3, 6]: N

Molecule: CCOC(=O)CCCCCCCCCCCCCCC(C)C [Ethyl isostearate]
Solubility of ultraviolet absorber Tinosorb S in the component [3, 7]: N

Molecule: CC(C)CCCCCCCOC(=O)C(C)(C)C [Isodecyl neopentanoate, reference compound]
Refractive index [4]: 1.430 | Viscosity [1]: 4 mPa · s | MIU (mean frictional coefficient) [2]: 0.15 | MMD (fluctuation of mean frictional coefficient) [2]: 0.005 | Solubility of ultraviolet absorber Tinosorb S in the component [3, 7]: N

Molecule: CC(C)CCCCCCOC(=O)CCCCCC(C)C [Isononyl isononanoate]
Solubility of ultraviolet absorber Tinosorb S in the component [3, 7]: N

Molecule: CC(C)CCCCCC(=O)OCC(C)(C)COC(=O)CCCCCC(C)C [Neopentyl glycol diisononanoate]
Solubility of ultraviolet absorber Tinosorb S in the component [3, 8]: (N)

Molecule: CCCCCCCCCCC(CO)CCCCCCCC (centres unmarked) [Octyldodecanol, reference compound]
Viscosity [1]: 49 mPa · s | MIU (mean frictional coefficient) [2]: 0.39 | MMD (fluctuation of mean frictional coefficient) [2]: 0.007

Molecule: Ethylhexyl hydroxystearate
Solubility of ultraviolet absorber Tinosorb S in the component [3, 8]: (N)

Molecule: Ethylhexyl isononanoate
Solubility of ultraviolet absorber Tinosorb S in the component [3, 7]: N

Molecule: tricyclo[5.2.1.0^2,6]deca-8-yl-methyl isostearate [TCDIS]
Refractive index [4]: 1.482 | Viscosity [1]: 85 mPa · s | MIU (mean frictional coefficient) [2]: 0.40 | MMD (fluctuation of mean frictional coefficient) [2]: 0.006
